From patent US20200037609A1, “HERBICIDAL COMPOSITIONS AND METHODS OF USE THEREOF” (The Regents of the University of California, priority 2017, published 2020)
“Also recorded” adds a separate entry of the source.

Legend:
AstD = biological target: T1, AstD (Aspergillus terreus, UniProt Q0CPG9); experiment: DHAD enzymatic inhibition assay (phenylhydrazine derivatization, LC-MS); type: biochemical; settings: 8 mM aspterric acid
T1 construct: […]; 6xHis; made in house; host or cells: E. coli BL21 (DE3)
Procedure: Enzymatic activity reactions were carried out in […] volumes containing 50 mM storage buffer, 10 mM (±)-Sodium 2,3-dihydroxyisovalerate hydrate (DHAD substrate) and 1 μM purified DHAD enzyme. After incubation for 30 minutes at 30° C., the reaction was stopped by adding an equal volume of ethanol. 1/10 volumes of 100 mM phenylhydrozine was added at room temperature for 30 minutes to derivatize the DHAD-synthesized molecule (3-methyl-2-oxo-butanoic acid) into a detectable derivatization product (DDP). See FIG. 5A for an overview of reactions.
Inhibition assays were carried out according to the reactions described above by incubating purified DHAD enzymes (either the housekeeping DHAD from Aspergillus terreus, the housekeeping DHAD from Arabidopsis thaliana, or AstD from Aspergillus terreus) with aspterric acid at various concentrations. For AstD, up to 8 mM of aspterric acid was tested. Derivatization with phenylhydrozine, LC-MS analysis, and DDP detection by UV absorption at 350 nm was carried out. The half maximal inhibitory concentration (IC50) and the effect of aspterric acid on the enzyme kinetics of each purified DHAD enzyme was calculated based on the initial reaction rates observed in the inhibition assays.
Biochemical assay of DHADs. […] The area of the HPLC peak with UV absorption at 350 nm was used to quantify the amount of 6. […]

[1] = system: S. cerevisiae ΔILV3 expressing fDHAD; experiment: Growth inhibition of S. cerevisiae ΔILV3 in ILV dropout media; type: cell-based, Saccharomyces cerevisiae
Procedure: Growth inhibition assay of S. cerevisiae on plates or in the tubes. S. cerevisiae was grown in isoleucine, leucine and valine (ILV) dropout media (20 g/L glucose, 0.67 g/L Difco™ Yeast Nitrogen Base w/o amino acids, 18 mg/L adenine, arginine 76 mg/L, asparagine 76 mg/L, aspartic acid 76 mg/L, glutamic acid 76 mg/L, histidine 76 mg/L, lysine 76 mg/L, methionine 76 mg/L, phenylalanine 76 mg/L, serine 76 mg/L, threonine 76 mg/L, tryptophan 76 mg/L, tyrosine 76 mg/L) to test growth inhibition of AA on S. cerevisiae. S. cerevisiae was incubated at 28° C. until OD600 of the control strain without AA treatment reached about 0.8. The ratio of yeast OD600 in media with AA treatment to yeast OD600 in media without AA was calculated as the percentage of growth inhibition. The inhibition curve was plotted as percentage of inhibition versus AA concentrations. […] The growth curves of TY05, TY06 and TY07 were also plotted (FIG. 29A-29D). The OD600 was recorded for every 20 minutes over a total of 50 h. The inhibition percentage can be calculated by following equation: […]

Saccharomyces cerevisiae = experiment: Yeast growth inhibition assay on plates; type: cell-based; settings: 250 μM aspterric acid
Procedure: Saccharomyces cerevisiae was plated onto dropout media that lacked isoleucine, leucine, and valine, either with or without 250 μM aspterric acid. Saccharomyces cerevisiae was also plated onto rich media that contained all amino acids along with 250 μM aspterric acid. Plates were incubated at 30° C.

[2] = system: astD transgene-expressing A. thaliana; experiment: AA resistance of astD transgenic plants (media and spray); type: in vivo, Arabidopsis thaliana
Procedure: Growth inhibition assay of plants on plates or in the tubes. MS (2.16 g/L Murashige and Skoog basal medium, 8 g/L sucrose, 8 g/L agar) media was used to test the growth inhibition of AA on A. thaliana, Solanum lycopersicum, and Zea mays. A. thaliana, S. lycopersicum, G. max and Z. mays were grown under long day condition (16/8 h light/dark) using cool-white fluorescence bulbs as the light resource at 23° C. AA was dissolved in ethanol and added to the media before inoculating strains or growing plants. The media of control treatment contains the same amount of ethanol, but without AA.
Plant growth inhibition assay by spraying. AA was firstly dissolved in ethanol and then added to solvent (0.06 g/L Finale® Bayer Inc.+20 g/L EtOH). The control plants were treated with solvent containing ethanol only. A. thaliana that are resistant to glufosinate (containing the bar gene) were grown under long day conditions (16/8 h light/dark) using cool-white fluorescence bulbs as the light resource at 23° C. Spraying treatments began when the seeds germinated, and was repeated once every two days with approximately 0.4 mL AA solution per time per pot.
The coding sequence of AstD was codon optimized for A. thaliana. A chloroplast localization signal (CLS) of 35-amino acid residues derived from the N-terminal of A. thaliana DHAD (SEQ ID NO: 19) was fused to N-terminus of the codon optimized AstD. […]

[3] = system: pollen development in Arabidopsis thaliana; experiment: Pollen development in AA treated plants; type: in vivo; settings: treated before flowering; listed as AA

T1 sequence (Q0CPG9 112-598): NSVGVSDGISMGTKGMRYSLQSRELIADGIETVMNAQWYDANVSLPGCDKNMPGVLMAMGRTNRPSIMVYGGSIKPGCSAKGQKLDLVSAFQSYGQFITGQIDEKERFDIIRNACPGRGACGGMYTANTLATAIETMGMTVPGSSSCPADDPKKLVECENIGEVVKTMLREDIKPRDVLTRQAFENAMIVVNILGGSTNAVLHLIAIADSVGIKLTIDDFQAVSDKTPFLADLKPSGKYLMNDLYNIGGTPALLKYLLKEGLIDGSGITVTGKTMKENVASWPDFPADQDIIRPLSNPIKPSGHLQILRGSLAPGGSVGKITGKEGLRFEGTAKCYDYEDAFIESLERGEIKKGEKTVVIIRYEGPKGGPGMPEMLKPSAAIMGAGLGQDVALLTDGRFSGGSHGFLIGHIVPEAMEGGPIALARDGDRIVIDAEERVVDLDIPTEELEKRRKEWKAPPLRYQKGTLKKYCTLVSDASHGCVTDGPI

## CC(C)=C1CC[C@]23CO[C@H](C2)[C@@](O)(C(=O)O)CC[C@@H]13 [aspterric acid]
AstD
  inhibition of AstD: no inhibition
AstD; listed as AA
  inhibition of AstD: not inhibited
[1]; Saccharomyces cerevisiae, ILV dropout media, read-out: IC50 of growth inhibition, yeast expressing fDHAD
  IC50: ~2000 nM
[1]; ratio of IC50
  sensitivity to AA of yeast expressing fDHAD compared to yeast expressing AstD: approximately 100 times
Saccharomyces cerevisiae
  growth of S. cerevisiae on media lacking isoleucine, leucine and valine: inhibited the growth
Saccharomyces cerevisiae; all amino acids present
  growth of S. cerevisiae on rich media: grew normally
[2]; 100 μM AA
  growth of astD transgenic plants on media: relatively unaffected
[2]; 250 μM AA + glufosinate ammonium
  growth of T2 astD transgenic plants after spray: no observable growth defects
[3]
  pollen formation in AA treated A. thaliana: failed to form normal pollen; also recorded: depleted of healthy and mature pollen
